Measured values: patent publication US4820727A, “N-acyl-N-naphthoylglycines as aldose reductase inhibitors” (American Home Products Corporation, priority 1987, dated 1989)

How the values were obtained:
dulcitol accumulation = experiment: Galactosemic rats, % lowering of dulcitol (galactitol) accumulation in vivo; parameters: species or system Sprague-Dawley rats; conditions: for % Lowering dulcitol accumulation IN VIVO, D: diaphragm; for % Lowering dulcitol accumulation IN VIVO, D / % Lowering dulcitol accumulation IN VIVO, L: 4 days; for % Lowering dulcitol accumulation IN VIVO, L: lens
From the text: Such experiments are exemplified hereinbelow after the listing of the following general comments pertaining to these experiments:
(a) Four or more groups of six male rats, 50-70 g, Sprague-Dawley strain, were used. The first group, the control group, was fed a mixture of laboratory chow (rodent Laboratory Chow, Purina) and glucose at 20% (w/w %) concentration. […] The test compound was either admixed to the diet or administered by gavage. In experiments involving compound administration in the diet, the average dose administered was calculated from the actual food intake of the animals in each group. The concentration of galactose in the diet of the treated groups was the same as that for the untreated galactosemic group.
(b) After four days, the animals were killed by decapitation. The eyeballs were removed and punctured with a razor blade; the freed lenses were rolled gently on filter paper and weighed. The sciatic nerves were dissected as completely as possible and weighed. Both tissues when frozen can be kept up to two weeks before being analyzed for galactitol.
Only two minor reagent changes were made: (a) the rinsing mixture was an aqueous 5% (w/v) trichloroacetic acid solution and (b) the stock solution was prepared by dissolving 25 mg of dulcitol in 100 mL of an aqueous trichloroacetic acid solution. [N.B.: For each experiment the average value found in the tissue from rats fed the glucose diet was subtracted from the individual values found in the corresponding tissue in galactose-fed rats to obtain the amount of polyol accumulated.]
The figures under L, N, and D represent the percentage decrease of galactitol accumulation in the tissues of the lens, sciatic nerve, and diaphragm, respectively, for treated rats as compared to untreated rats.

[1] = tested on: Sciatic Nerve Polyol Accumulation; experiment: Two-Week Streptozocin-Diabetic Rat Model, % lowering of sciatic nerve polyol accumulation; assay type: in vivo, Sprague-Dawley rats; conditions: gavage, 14 days
From the text: A second in vivo model examined the effect of the compounds of the present invention on sorbitol accumulation in the tissues of 14-day streptozocin (STZ) (Upjohn) diabetic rats.
In each of the studies male Sprague-Dawley rats from Charles River Labs, Kingston, NY, weighing 200 to 250 g, were used. The animals were weighed and observed for 5 days prior to the start of the study.
In each study the rats were randomly assigned by weight into groups of 15 animals except for group I which contained 8 animals. The groups were treated as follows:
Group II: STZ, 110 mg/kg i.p.
Group IV: STZ, 110 mg/kg i.p. followed by various doses of a compound of the present invention given by gavage for 14 days, beginning on the day of induction of diabetes.
Following an overnight fast (water ad lib) the animals in groups II-IV were given by i.p. injection 110 mg STZ per kg body weight. The STZ was dissolved in cold citric acid, 0.03M, pH 4.5 and injected within 5 minutes of being dissolved. Control rats (group I) were injected with buffer only. One hour following the injection, standard laboratory chow (Rodent lab chow 5001, Purina) was placed in the cages.
Two days after STZ injection plasma glucose levels (from the tail vein) were determined following a 4 hour fast. Excluded from the study were animals whose plasma glucose was below 300 mg/dl. Control animals with plasma glucose levels greater than 200 mg/dl were also excluded.
On the morning of the 14th day following STZ injection the animals were fasted 4 hours prior to sacrificing by decapitation. The blood was collected into heparin containing tubes and placed on ice. Both lenses and sciatic nerves were removed immediately, weighed, frozen, and stored at -20° C. until analyzed for sorbitol. The RBCs were collected by centrifugation, the plasma was removed and the cells were washed once with 10 volumes of cold saline. The washed packed RBCs were divided into 1 mL aliquots, extracted with cold perchloric acid and the acid extracts were stored at -20° C. until analyzed for sorbitol.

[2] = tested on: Sciatic Nerve Polyol Accumulation; experiment: as above; assay type: in vivo, Sprague-Dawley rats; conditions: gavage, 14 days; remark: listed apart in the source
aldose reductase = molecular target: T1, aldose reductase (Bos taurus, UniProt P16116); experiment: In vitro aldose reductase inhibition (modified Hayman and Kinoshita procedure, enzyme from bovine lens); assay type: biochemical; conditions: for inhibition at 0.04 µM: read-out: % Inhibition IN VITRO 4 × 10^-8 M; for inhibition at 10 µM: read-out: % Inhibition IN VITRO 10^-5 M; for inhibition at 1 µM: read-out: % Inhibition IN VITRO 10^-6 M; for inhibition at 0.1 µM: read-out: % Inhibition IN VITRO 10^-7 M
T1 construct: preparation of the enzyme from bovine lens; from tissue; host or cells: bovine lens
From the text: In the present case the procedure of Hayman and Kinoshita was modified in that the final chromatography step was omitted in the preparation of the enzyme from bovine lens.

[3] = 15 mg/kg, N.S. = not significant
[4] = 5.2 mg/kg, N.S. = not significant
[5] = 27 mg/kg, N.S. = not significant

Compound: COC(=O)N(CC(=O)O)C(=O)c1c(F)ccc2c(C(F)(F)F)c(OC)ccc12 [Example 1, N-[[2-fluoro-6-methoxy-5-(trifluoromethyl)-1-naphthalenyl]carbonyl]-N-(methoxycarbonyl)glycine]
- results in the sciatic nerve compared with tolrestat (dulcitol accumulation; 10 mg/kg/day vs tolrestat at 9 mg/kg/day, sciatic nerve): comparable results
- % Lowering dulcitol accumulation IN VIVO, D (dulcitol accumulation; 5 mg/kg): 52%
- % Lowering dulcitol accumulation IN VIVO, D (dulcitol accumulation; 10 mg/kg): 62%
- % Lowering dulcitol accumulation IN VIVO, L (dulcitol accumulation; 5 mg/kg, N.S. = not significant): N.S.
- % Lowering dulcitol accumulation IN VIVO, L (dulcitol accumulation; 10 mg/kg, N.S. = not significant): N.S.
- % Lowering dulcitol accumulation IN VIVO, L (dulcitol accumulation; 14 mg/kg, N.S. = not significant): N.S.
- % Lowering dulcitol accumulation IN VIVO, L (dulcitol accumulation; [3]): N.S.
- % Lowering of Sciatic Nerve Polyol Accumulation, Sorbitol (%) ([1]; 2 mg/kg): 38%
- % Lowering of Sciatic Nerve Polyol Accumulation, Sorbitol (%) ([1]; 5 mg/kg): 39%
- % Lowering of Sciatic Nerve Polyol Accumulation, Sorbitol (%) ([1]; 10 mg/kg): 85%
- % Lowering of Sciatic Nerve Polyol Accumulation, Sorbitol (%) ([1]; 15 mg/kg): 85%
- % Lowering of Sciatic Nerve Polyol Accumulation, Fructose (%) ([2]; 2 mg/kg): 22%
- % Lowering of Sciatic Nerve Polyol Accumulation, Fructose (%) ([2]; 5 mg/kg): 36%
- % Lowering of Sciatic Nerve Polyol Accumulation, Fructose (%) ([2]; 10 mg/kg): 72%
- % Lowering of Sciatic Nerve Polyol Accumulation, Fructose (%) ([2]; 15 mg/kg): 86%
- inhibition at 0.04 µM (aldose reductase): 59%
- inhibition at 10 µM (aldose reductase): 99%
- inhibition at 1 µM (aldose reductase): 95%
- inhibition at 0.1 µM (aldose reductase): 86%

Compound: COC(=O)N(CC(N)=O)C(=O)c1c(F)ccc2c(C(F)(F)F)c(OC)ccc12 [Example 2, [[[2-Fluoro-6-methoxy-5-(trifluoromethyl)-1-naphthalenyl]carbonyl](methoxycarbonyl)amino]acetamide]
- % Lowering dulcitol accumulation IN VIVO, D (dulcitol accumulation; [4]): N.S.
- % Lowering dulcitol accumulation IN VIVO, D (dulcitol accumulation; 10.4 mg/kg): 23%
- % Lowering dulcitol accumulation IN VIVO, L (dulcitol accumulation; [4]): N.S.
- % Lowering dulcitol accumulation IN VIVO, L (dulcitol accumulation; 10.4 mg/kg, N.S. = not significant): N.S.
- inhibition at 10 µM (aldose reductase): 2%
- inhibition at 1 µM (aldose reductase): 0%

Compound: CCOC(=O)N(CC(=O)O)C(=O)c1c(F)ccc2c(C(F)(F)F)c(OC)ccc12 [Example 3, N-(Ethoxycarbonyl)-N-[[2-fluoro-6-methoxy-5-(trifluoromethyl)-1-naphthalenyl]carbonyl]glycine]
- % Lowering dulcitol accumulation IN VIVO, D (dulcitol accumulation; 15 mg/kg): 59%
- % Lowering dulcitol accumulation IN VIVO, D (dulcitol accumulation; 25 mg/kg): 65%
- % Lowering dulcitol accumulation IN VIVO, L (dulcitol accumulation; [3]): N.S.
- % Lowering dulcitol accumulation IN VIVO, L (dulcitol accumulation; 25 mg/kg, N.S. = not significant): N.S
- inhibition at 0.04 µM (aldose reductase): 67%
- inhibition at 10 µM (aldose reductase): 99%
- inhibition at 1 µM (aldose reductase): 95%
- inhibition at 0.1 µM (aldose reductase): 87%

Compound: COC(=O)N(CC(=O)O)C(=O)c1c(Cl)ccc2c(C(F)(F)F)c(OC)ccc12 [Example 4, N-[[2-Chloro-6-methoxy-5-(trifluoromethyl)-1-naphthalenyl]carbonyl]-N-(methoxycarbonyl)glycine]
- % Lowering dulcitol accumulation IN VIVO, D (dulcitol accumulation; 26 mg/kg): 68%
- % Lowering dulcitol accumulation IN VIVO, L (dulcitol accumulation; 26 mg/kg, N.S. = not significant): N.S.
- inhibition at 0.04 µM (aldose reductase): 57%
- inhibition at 10 µM (aldose reductase): 98%
- inhibition at 1 µM (aldose reductase): 95%
- inhibition at 0.1 µM (aldose reductase): 85%

Compound: COC(=O)N(CC(=O)O)C(=O)c1c(Br)ccc2c(C(F)(F)F)c(OC)ccc12 [Example 5, N-[[2-Bromo-6-methoxy-5-(trifluoromethyl)-1-naphthalenyl]carbonyl]-N-(methoxycarbonyl)glycine]
- % Lowering dulcitol accumulation IN VIVO, D (dulcitol accumulation; 51 mg/kg): 62%
- % Lowering dulcitol accumulation IN VIVO, L (dulcitol accumulation; 51 mg/kg, N.S. = not significant): N.S.
- inhibition at 0.04 µM (aldose reductase): 54%
- inhibition at 10 µM (aldose reductase): 97%
- inhibition at 1 µM (aldose reductase): 92%
- inhibition at 0.1 µM (aldose reductase): 77%

Compound: COC(=O)N(CC(=O)O)C(=O)c1c(OCC(F)(F)F)ccc2c(C(F)(F)F)c(OC)ccc12 [Example 6, N-[[6-Methoxy-2-(2,2,2-trifluoroethoxy)-5-(trifluoromethyl)-1-naphthalenyl]carbonyl]-N-(methoxycarbonyl)glycine]
- % Lowering dulcitol accumulation IN VIVO, D (dulcitol accumulation; 27 mg/kg): 49%
- % Lowering dulcitol accumulation IN VIVO, L (dulcitol accumulation; [5]): N.S.
- inhibition at 0.04 µM (aldose reductase): 56%
- inhibition at 0.1 µM (aldose reductase): 83%

Compound: CCOC(=O)N(CC(=O)O)C(=O)c1c(OCC(F)(F)F)ccc2c(C(F)(F)F)c(OC)ccc12 [Example 7, N-(Ethoxycarbonyl)-N-[[6-methoxy-2-(2,2,2-trifluoroethoxy)-5-(trifluoromethyl)-1-naphthalenyl]carbonyl]glycine]
- % Lowering dulcitol accumulation IN VIVO, D (dulcitol accumulation; 27 mg/kg): 39%
- % Lowering dulcitol accumulation IN VIVO, L (dulcitol accumulation; [5]): N.S.
- inhibition at 0.04 µM (aldose reductase): 47%
- inhibition at 10 µM (aldose reductase): 98%
- inhibition at 1 µM (aldose reductase): 90%
- inhibition at 0.1 µM (aldose reductase): 78%

Compound: CCOC(=O)N(CC(=O)O)C(=O)c1c(Cl)ccc2c(C(F)(F)F)c(OC)ccc12 [Example 8, N-[[2-Chloro-6-methoxy-5-(trifluoromethyl)-1-naphthalenyl]carbonyl]-N-(ethoxycarbonyl)glycine]
- % Lowering dulcitol accumulation IN VIVO, D (dulcitol accumulation; 50 mg/kg): 47%
- % Lowering dulcitol accumulation IN VIVO, L (dulcitol accumulation; 50 mg/kg, N.S. = not significant): N.S.
- inhibition at 0.04 µM (aldose reductase): 47%
- inhibition at 0.1 µM (aldose reductase): 79%

Compound: CCOC(=O)N(CC(=O)O)C(=O)c1c(Br)ccc2c(C(F)(F)F)c(OC)ccc12 [Example 9, N-[[2-Bromo-6-methoxy-5-(trifluoromethyl)-1-naphthalenyl]carbonyl]-N-(ethoxycarbonyl)glycine]
- % Lowering dulcitol accumulation IN VIVO, D (dulcitol accumulation; 43 mg/kg): 27%
- % Lowering dulcitol accumulation IN VIVO, L (dulcitol accumulation; 43 mg/kg, N.S. = not significant): N.S.
- inhibition at 0.04 µM (aldose reductase): 52%
- inhibition at 10 µM (aldose reductase): 98%
- inhibition at 1 µM (aldose reductase): 93%
- inhibition at 0.1 µM (aldose reductase): 76%

Compound: COc1ccc2c(C(=S)N(C)CC(=O)O)cccc2c1C(F)(F)F [Tolrestat, N-[[6-methoxy-5-(trifluoromethyl)-1-naphthalenyl]thioxo-methyl]-N-methylglycine, reference compound]
- % Lowering dulcitol accumulation IN VIVO, L (dulcitol accumulation; 9 mg/kg, N.S. = not significant): N.S.
- % Lowering of Sciatic Nerve Polyol Accumulation, Sorbitol (%) ([1]; 6 mg/kg): 80%
- % Lowering of Sciatic Nerve Polyol Accumulation, Fructose (%) ([2]; 6 mg/kg): 63%
